Results on nine compounds are retold here after patent publication US20090075951A1, “Methods and Reagents for the Treatment of Inflammatory Disorders” (CombinatoRx, Inc., priority 2003, published 2009).

As a reminder, the inhibition is the drop in the measured response relative to a control, in per cent.

“And” between values parts separate entries of the source, which are not always exact repeats. Identical values can stand only once. Like-named read-outs stand apart in the source and are kept apart here.

The subject of assay [1] is TNFα secretion from LPS stimulated white blood cells from human buffy coat. Briefly: TNFα secretion assay, LPS stimulation. The note with it: for percent inhibition of TNFα secretion: LPS.
Description: (§1) Various concentrations of each test compound were added at the time of stimulation. […] After the plate was washed with 0.1% Tween 20/PBS, an HRP-luminescent substrate was added to each well and light intensity measured using a LJL Analyst plate luminometer.
The test system of assay [2] is TNFα secretion from PMA/ionomycin stimulated white blood cells from human buffy coat. The assay is described as follows: TNFα secretion assay, PMA/ionomycin stimulation. The conditions noted are these: for inhibition at 0.01 µM: read-out: TNFα PI percent inhibition, 0.01 μM.
Description: as §1
The next assay relates to cytokine secretion. Briefly: Suppression of cytokine secretion in vitro by individual tricyclic compounds.
[3] abbreviates: read-out: TNFα PI percent inhibition, […].
Where [4] appears, read: read-out: IL-1β LPS percent inhibition.
Where [5] appears, read: read-out: IL-2 PI percent inhibition.
Where [6] appears, read: Clomipramine μM: 57.00, 28.50, 14.25, 7.13, 3.56, 1.78, 0.89, 0.45, 0.22, 0.11, 0.06, 0.03.
[7] abbreviates: Protriptyline μM by row r6-r17: 67.00, 33.50, 16.75, 8.38, 4.19, 2.09, 1.05, 0.52, 0.26, 0.13, 0.07, 0.03.
[8] abbreviates: Amoxapine μM: 32.00, 16.00, 8.00, 4.00, 2.00, 1.00, 0.50, 0.25, 0.13, 0.06, 0.03, 0.02.
Where [9] appears, read: Nortriptyline μM by row r6-r17: 67.00, 33.50, 16.75, 8.38, 4.19, 2.09, 1.05, 0.52, 0.26, 0.13, 0.07, 0.03.

Description for cytokine secretion: Individual tricyclic compounds were tested for their ability to suppress cytokine secretion in vitro.

`Clc1ccc2c(c1)N=C(N1CCNCC1)c1ccccc1N2` [Norclozapine, norclozapine]: the “percent inhibition of TNFα secretion” value in assay [1] (Prednisolone 0 μM, Norclozapine μM r5-r13: 0,0.21,0.41,0.83,1.7,3.3,6.6,13,27) is listed as −17%.
On to `CNCC[C@@H](Oc1ccccc1C)c1ccccc1` [Tomoxetine, tomoxetine], for which the inhibition at 0.03 µM in assay [1] (Homo sapiens, read-out: TNFα LPS percent inhibition, 0.03 μM) was determined as 0%; in assay [2] (read-out: TNFα PI percent inhibition, 0.03 μM) it was 0%; in the assay on cytokine secretion (setting [4]) it was 0%; in the assay on cytokine secretion (setting [5]) it was 0%. The inhibition at 0.07 µM in assay [1] (Homo sapiens, read-out: TNFα LPS percent inhibition, 0.07 μM) was 1%; in assay [2] (read-out: TNFα PI percent inhibition, 0.07 μM) it was 4%; in the assay with cytokine secretion (setting [4]) it was 0%; in the assay on cytokine secretion (setting [5]), 1%. Moreover, the inhibition at 69 µM in assay [1] (Homo sapiens, read-out: TNFα LPS percent inhibition, […]) amounted to 0%; in assay [2] (setting [3]), 72%; with cytokine secretion (setting [4]), 0%; in the assay on cytokine secretion (setting [5]), 79%.
With `OCCOCCN1CCN(C2=Nc3ccccc3Sc3ccccc32)CC1` [Quetiapine fumurate], the inhibition at 0.01 µM in assay [2] turned out to be 7%; in the assay on cytokine secretion (setting [5]) it was 0%. The inhibition at 0.02 µM in assay [2] (read-out: TNFα PI percent inhibition, 0.02 μM) was determined as 0%; in the assay with cytokine secretion (setting [5]), 0%. Further, the inhibition at 0.05 µM in assay [2] (read-out: TNFα PI percent inhibition, 0.05 μM) came out at 0%; in the assay with cytokine secretion (setting [5]) it was 0%. For the same compound, the inhibition at 11 µM is 13% in assay [2] (setting [3]) and 0% in the assay on cytokine secretion (setting [5]).
With `CN(C)CCCN1c2ccccc2CCc2ccc(Cl)cc21` [Clomipramine, clomipramine], the “percent inhibition of TNFα secretion” value in assay [1] (Prednisolone 1 μM, Clomipramine μM r5-r13: 0,0.45,0.89,1.8,3.6,7.1,14,28,57) is 69.3%. In the assay with cytokine secretion (setting [6]), the “IL-1β LPS, percent inhibition relative to untreated controls” value was 3% and 0%; the “IL-2 PI, percent inhibition relative to untreated controls” value was 5% and 0%; the “TNFα LPS, percent inhibition relative to untreated controls” value is 0%; the “TNFα PI, percent inhibition relative to untreated controls” value is reported as 0%.
Regarding `CNCCCC1c2ccccc2C=Cc2ccccc21` [Protriptyline, protriptyline], in the assay on cytokine secretion (setting [7]), the “IL-1β LPS, percent inhibition relative to untreated controls” value is on record as 0%; the “IL-2 PI, percent inhibition relative to untreated controls” value was 0%; the “TNFα LPS, percent inhibition relative to untreated controls” value was 2% and 0%; the “TNFα PI, percent inhibition relative to untreated controls” value is 0%.
As to `Clc1ccc2c(c1)C(N1CCNCC1)=Nc1ccccc1O2` [Amoxapine, amoxapine], the “percent inhibition of TNFα secretion” value in assay [1] (Prednisolone 0.5 μM, Amoxapine μM r5-r13: 0,0.25,0.5,1,2,4,8,16,32) is 68.1%. Also, in the assay on cytokine secretion (setting [8]), the “IL-1β LPS, percent inhibition relative to untreated controls” value was 5% and 0%; the “IL-2 PI, percent inhibition relative to untreated controls” value is reported as 0%; the “TNFα LPS, percent inhibition relative to untreated controls” value amounted to 0%; the “TNFα PI, percent inhibition relative to untreated controls” value was 4% and 0%.
On to `CNCCC=C1c2ccccc2CCc2ccccc21` [Nortriptyline, nortriptyline], for which, in the assay on cytokine secretion (setting [9]), the “IL-1β LPS, percent inhibition relative to untreated controls” value is 3% and 0%; the “IL-2 PI, percent inhibition relative to untreated controls” value was 0%; the “TNFα LPS, percent inhibition relative to untreated controls” value is 1% and 0%; the “TNFα PI, percent inhibition relative to untreated controls” value was found to be 2%.
Take `CN1CCN(C2=Nc3cc(F)ccc3Cc3ccccc32)CC1` [Fluperlapine, fluperlapine]: the inhibition at 0.01 µM worked out at 0% in assay [2] and 6% in the assay on cytokine secretion (setting [5]). Besides, the inhibition at 0.04 µM in assay [2] (read-out: TNFα PI percent inhibition, 0.04 μM) worked out at 0%; in the assay on cytokine secretion (setting [5]), 8%. Also, the inhibition at 0.4 µM in assay [2] (read-out: TNFα PI percent inhibition, 0.40 μM) is 0%; with cytokine secretion (setting [5]), 7%. Further, the inhibition at 32 µM in assay [2] (setting [3]) is 25%; in the assay on cytokine secretion (setting [5]), 1%.
Turning to `C[C@H]1C[C@H]2[C@@H]3CCC4=CC(=O)C=C[C@]4(C)[C@@]3(F)[C@@H](O)C[C@]2(C)[C@@]1(O)C(=O)CO` [Betamethasone], the inhibition at […] came to 35.8% in assay [2] (read-out: inhibition of TNFα secretion, Betamethasone 38 nM, Imipramine nM: 0, 99, 394, 1578, 6311, 25000); 9.93% in assay [2] (read-out: inhibition of TNFα secretion, Betamethasone 38 nM, Nortriptyline nM: 0, 52, 208, 834, 3336, 13000); 26.3% in assay [2] (read-out: percent inhibition of TNFα secretion, Betamethasone 38 nM, Amoxapine nM: 0, 12, 50, 199, 797, 3187); 36% in assay [2] (read-out: percent inhibition of TNFα secretion, Betamethasone 38 nM, Clomipramine nM: 0, 45, 178, 712, 2848, 11000); 17.3% in assay [2] (read-out: percent inhibition of TNFα secretion, Betamethasone 38 nM, Desipramine nM: 0, 50, 200, 799, 3197, 13000). The inhibition at 2.434 µM in assay [2] (read-out: inhibition of TNFα secretion, Betamethasone 2434 nM, Nortriptyline nM: 0, 52, 208, 834, 3336, 13000) was found to be 38.9%; in assay [2] (read-out: percent inhibition of TNFα secretion, Betamethasone 2434 nM, Desipramine nM: 0, 50, 200, 799, 3197, 13000), 48.9%.
